{
  "source": "paper PMC10877564",
  "about": "“Activity of Gut-Derived Nisin-like Lantibiotics against Human Gut Pathogens and Commensals” (ACS Chemical Biology, 2024)",
  "test": "Liposome permeabilization assay, liposomes without lipid II",
  "assay_type": "biochemical",
  "conditions": "375 nM lantibiotic; DOPC, 50 µM phospholipid; pyranine fluorescence, 30 min; three replicates; Figure S7",
  "experimental": "To further investigate the mechanisms of action of these nisin-like lantibiotics, we performed liposome permeabilization assays using liposomes with or without lipid II (Figure S7).\nLiposome Permeabilization Assay\nTo prepare pyranine encapsulated liposomes, DOPC (25 mg/mL in CHCl3, purchased from Avanti) was deposited into a vial and mixed with lipid II (dissolved in 2:1 CHCl3: MeOH, prepared chemoenzymatically).6 The solvent was removed using a stream of N2 leaving a thin film. Residual solvent was removed by storing it overnight in a vacuum desiccator. The film was rehydrated in buffer (5 mM Tricine, 5 mM MES, 5 mM NaCl, 1 mM pyranine pH = 6.0) and suspended with vortexing. The suspension was subjected to freeze-thaw three times before extrusion through a […] polycarbonate filter (21 passes). Excess pyranine was removed by passing the liposome solution through a Sephadex G-50 column previously equilibrated with buffer (5 mM Tricine, 5 mM MES, 5 mM NaCl, pH = 6.0). The eluted liposome solution containing the highest concentration of encapsulated pyranine (as determined visually with a UV lamp) was immediately placed on ice. Phospholipid concentration was determined by NMR as described previously.7 To measure liposome permeabilization, to a 96 well black polystyrene plate was added buffer (5 mM Tricine, 5 mM MES, 5 mM NaCl, pH = 8.0; 97 µL) and liposome solution (3 µL; 50 µM phospholipid concentration during assay). The wells were allowed to equilibrate for 8 min at room temperature then antibiotic was added. The antibiotic concentration in each well was 375 nM.\nPyranine fluorescence was monitored for 30 min then Triton X-100 was added to a final concentration of 0.1% and pyranine fluorescence was monitored for an additional 5 min. The pyranine fluorescence signal was max-min normalized. […]\nFig. S7 Liposome permeabilization assays of nisin-like lantibiotics. (A) Scheme of liposome […]\nlow fluorescence. Fluorescence increases upon liposome permeabilization and pH increase . (B) Fraction of liposomes permeabilized by lantibiotics (375 nM). Liposomes were composed of DOPC with or without 0.1 mol% lipid II. Error bars represent the standard of deviation of three […]\n(1 picture or pasted object on this page, not shown here)",
  "note": "Positions of bridges follow the written chain, without caps; N, C: chain ends. Non-standard residues stand in square brackets, D forms with d. No end group written: not given here. Abu = CC[C@H](N)C(=O)O; Dhb = C/C=C(\\N)C(=O)O; Dha = C=C(N)C(=O)O",
  "data": [
    {"substance": "nisin A (I[Dhb]AI[Dha]LC[Abu]PGCK[Abu]GALMGCNMK[Abu]A[Abu]CHCSIHV[Dha]K; thioether 8-11, 13-19, 23-26, 25-28, 3-7; UniProt P13068 24-57, looked up) [prototypical class I lantibiotic produced by L. lactis, food preservative; commercial nisin A]", "values": [
      {"measurement": "permeabilization of liposomes without lipid II compared to liposomes with lipid II (in words)", "result": "decreased permeabilization activities"}
    ]}
  ]
}
